According to ChEMBL document CHEMBL5120836, “Discovery of novel 7,8-dihydropteridine-6(5H)-one-based DNA-PK inhibitors as potential anticancer agents via scaffold hopping strategy” (Eur J Med Chem, 2022):
pIC50: −log10 of the molar value. Values after ≈ are worked out from the molar mass of the structure shown. One block for each compound: values may come before it. Active and inactive are the calls of the source. The rule behind the calls is not given here.

Legend:
[1] = target: DNA-dependent protein kinase catalytic subunit (Homo sapiens, UniProt P78527); assay: Inhibition of human native full length DNA-PK by ADP-Glo assay
DNA-dependent protein kinase catalytic subunit, sequence (P78527 whole entry): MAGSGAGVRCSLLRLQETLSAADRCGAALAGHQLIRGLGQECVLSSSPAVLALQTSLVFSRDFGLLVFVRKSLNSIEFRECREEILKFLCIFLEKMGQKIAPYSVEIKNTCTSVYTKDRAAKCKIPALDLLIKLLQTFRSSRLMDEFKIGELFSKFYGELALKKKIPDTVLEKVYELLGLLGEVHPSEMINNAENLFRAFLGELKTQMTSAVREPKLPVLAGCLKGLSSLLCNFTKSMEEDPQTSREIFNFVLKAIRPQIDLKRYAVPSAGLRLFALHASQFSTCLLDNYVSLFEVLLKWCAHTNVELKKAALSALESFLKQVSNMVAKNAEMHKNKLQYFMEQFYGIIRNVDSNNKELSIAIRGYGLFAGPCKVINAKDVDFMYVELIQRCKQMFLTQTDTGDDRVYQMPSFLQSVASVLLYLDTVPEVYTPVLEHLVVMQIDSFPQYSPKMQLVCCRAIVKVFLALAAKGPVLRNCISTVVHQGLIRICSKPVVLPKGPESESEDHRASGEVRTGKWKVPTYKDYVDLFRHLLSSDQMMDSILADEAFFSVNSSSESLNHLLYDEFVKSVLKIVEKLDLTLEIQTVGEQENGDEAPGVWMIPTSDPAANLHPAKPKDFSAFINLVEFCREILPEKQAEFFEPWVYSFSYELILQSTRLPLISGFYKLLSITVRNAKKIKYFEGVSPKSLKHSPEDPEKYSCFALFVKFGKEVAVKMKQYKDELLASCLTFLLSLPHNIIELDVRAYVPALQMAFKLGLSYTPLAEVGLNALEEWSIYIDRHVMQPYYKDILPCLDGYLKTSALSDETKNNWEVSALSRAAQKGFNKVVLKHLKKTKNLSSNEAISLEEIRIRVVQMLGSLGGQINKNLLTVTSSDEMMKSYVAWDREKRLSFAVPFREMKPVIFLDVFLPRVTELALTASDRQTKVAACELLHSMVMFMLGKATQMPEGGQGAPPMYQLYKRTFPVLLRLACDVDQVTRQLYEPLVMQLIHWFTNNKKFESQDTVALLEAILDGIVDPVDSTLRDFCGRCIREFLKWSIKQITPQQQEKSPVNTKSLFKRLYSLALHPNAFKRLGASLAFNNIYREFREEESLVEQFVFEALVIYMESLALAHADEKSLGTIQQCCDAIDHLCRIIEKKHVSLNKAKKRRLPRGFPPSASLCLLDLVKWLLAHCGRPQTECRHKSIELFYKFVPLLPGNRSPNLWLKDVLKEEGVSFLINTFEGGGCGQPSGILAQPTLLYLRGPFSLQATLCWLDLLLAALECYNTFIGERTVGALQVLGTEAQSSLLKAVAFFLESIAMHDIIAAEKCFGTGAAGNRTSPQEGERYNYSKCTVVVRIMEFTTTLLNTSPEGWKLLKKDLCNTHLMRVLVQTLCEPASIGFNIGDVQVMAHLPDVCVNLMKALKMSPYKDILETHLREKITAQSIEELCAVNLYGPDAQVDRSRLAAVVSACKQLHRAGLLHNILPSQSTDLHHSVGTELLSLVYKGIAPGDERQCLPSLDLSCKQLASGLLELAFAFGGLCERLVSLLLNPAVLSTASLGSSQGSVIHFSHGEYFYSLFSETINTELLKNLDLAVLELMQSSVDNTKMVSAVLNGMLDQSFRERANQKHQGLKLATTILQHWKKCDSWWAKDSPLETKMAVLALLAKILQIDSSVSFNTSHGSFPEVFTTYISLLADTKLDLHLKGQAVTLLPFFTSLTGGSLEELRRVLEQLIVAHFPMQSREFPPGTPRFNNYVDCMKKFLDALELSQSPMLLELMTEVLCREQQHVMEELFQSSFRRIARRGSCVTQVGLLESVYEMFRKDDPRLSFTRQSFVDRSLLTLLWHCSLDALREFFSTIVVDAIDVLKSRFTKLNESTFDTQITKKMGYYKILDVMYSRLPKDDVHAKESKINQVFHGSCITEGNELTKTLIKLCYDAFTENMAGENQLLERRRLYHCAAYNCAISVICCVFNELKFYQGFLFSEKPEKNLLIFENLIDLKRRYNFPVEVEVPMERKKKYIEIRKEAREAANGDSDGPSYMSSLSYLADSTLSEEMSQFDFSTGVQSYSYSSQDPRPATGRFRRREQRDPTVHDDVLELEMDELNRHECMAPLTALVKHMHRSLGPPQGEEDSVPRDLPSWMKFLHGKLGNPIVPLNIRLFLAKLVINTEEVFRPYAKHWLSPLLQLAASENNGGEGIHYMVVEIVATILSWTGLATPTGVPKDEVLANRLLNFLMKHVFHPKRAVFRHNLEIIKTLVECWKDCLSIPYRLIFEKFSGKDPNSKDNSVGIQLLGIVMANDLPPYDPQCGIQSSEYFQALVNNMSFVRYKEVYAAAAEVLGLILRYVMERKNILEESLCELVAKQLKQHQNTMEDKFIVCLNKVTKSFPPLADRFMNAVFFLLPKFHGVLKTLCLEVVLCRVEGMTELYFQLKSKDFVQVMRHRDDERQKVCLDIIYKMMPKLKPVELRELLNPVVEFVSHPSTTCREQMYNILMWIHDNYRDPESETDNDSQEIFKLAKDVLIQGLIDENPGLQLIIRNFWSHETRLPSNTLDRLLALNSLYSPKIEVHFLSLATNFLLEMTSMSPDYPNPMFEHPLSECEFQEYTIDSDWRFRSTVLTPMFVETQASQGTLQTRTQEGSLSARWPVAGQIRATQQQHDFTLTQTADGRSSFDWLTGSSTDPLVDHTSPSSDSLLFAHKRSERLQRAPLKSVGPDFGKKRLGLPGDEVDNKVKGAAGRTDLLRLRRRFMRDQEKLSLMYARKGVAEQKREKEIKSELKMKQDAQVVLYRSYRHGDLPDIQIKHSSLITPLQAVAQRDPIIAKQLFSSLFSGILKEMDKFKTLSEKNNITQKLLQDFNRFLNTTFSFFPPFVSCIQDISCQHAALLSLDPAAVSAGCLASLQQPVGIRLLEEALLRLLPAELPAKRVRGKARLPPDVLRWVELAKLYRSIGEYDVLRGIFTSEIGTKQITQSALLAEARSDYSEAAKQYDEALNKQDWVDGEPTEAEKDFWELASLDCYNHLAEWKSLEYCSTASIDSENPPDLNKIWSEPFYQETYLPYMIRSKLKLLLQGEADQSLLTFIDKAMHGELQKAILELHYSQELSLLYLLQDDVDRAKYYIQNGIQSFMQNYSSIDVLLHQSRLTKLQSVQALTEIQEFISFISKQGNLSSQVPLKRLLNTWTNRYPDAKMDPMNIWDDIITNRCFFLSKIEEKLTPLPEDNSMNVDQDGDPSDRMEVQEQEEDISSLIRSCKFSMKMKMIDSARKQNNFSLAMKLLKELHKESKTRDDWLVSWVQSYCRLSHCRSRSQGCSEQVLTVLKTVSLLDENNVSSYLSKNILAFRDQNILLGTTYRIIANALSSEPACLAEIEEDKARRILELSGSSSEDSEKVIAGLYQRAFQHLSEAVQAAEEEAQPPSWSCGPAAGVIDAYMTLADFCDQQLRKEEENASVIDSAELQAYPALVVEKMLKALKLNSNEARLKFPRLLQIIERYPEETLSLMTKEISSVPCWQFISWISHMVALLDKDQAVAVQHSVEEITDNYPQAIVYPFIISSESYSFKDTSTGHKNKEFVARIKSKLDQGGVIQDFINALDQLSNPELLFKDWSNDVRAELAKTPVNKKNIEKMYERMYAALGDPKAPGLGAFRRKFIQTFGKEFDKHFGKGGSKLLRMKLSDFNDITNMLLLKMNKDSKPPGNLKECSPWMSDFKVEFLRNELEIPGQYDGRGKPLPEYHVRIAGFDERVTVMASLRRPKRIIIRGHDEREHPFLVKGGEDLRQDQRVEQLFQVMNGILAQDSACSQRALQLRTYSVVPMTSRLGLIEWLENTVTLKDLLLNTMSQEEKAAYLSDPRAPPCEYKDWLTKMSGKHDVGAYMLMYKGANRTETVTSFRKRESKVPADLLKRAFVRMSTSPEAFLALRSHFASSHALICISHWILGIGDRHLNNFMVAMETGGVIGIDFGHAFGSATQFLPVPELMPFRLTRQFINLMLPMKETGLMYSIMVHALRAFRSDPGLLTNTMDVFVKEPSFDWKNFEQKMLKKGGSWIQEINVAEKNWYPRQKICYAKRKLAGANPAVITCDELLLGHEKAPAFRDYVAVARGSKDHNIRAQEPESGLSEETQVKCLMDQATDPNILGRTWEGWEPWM

HCT-116 [2] = assay: Induction of cell cycle arrest in human HCT-116 cells assessed as increase in accumulation of cells at […] at 1 uM incubated for 24 hrs in presence of 100 nM doxorubicin by PI staining based flow cytometry; type: functional
[3] = Toxicity in BALB/c nude mouse xenografted with human HL-60 cells assessed as effect on body weight at 100 mg/kg, po qd for 16 days co-administered with doxorubicin; type: organism-based; details: in vivo, 384 h, time 16 day
HCT-116 [4] = assay: Induction of apoptosis in human HCT-116 cells assessed as late apoptotic cells at 1 uM incubated for 24 hrs by AnnexinV-FITC/PI staining based flow cytometry (reference value: 3.07%); type: functional
HCT-116 [5] = assay: Induction of apoptosis in human HCT-116 cells assessed as viable cells at 1 uM incubated for 24 hrs by AnnexinV-FITC/PI staining based flow cytometry (reference value: 93.9%); type: functional; details: read-out: Activity
[6] = Tmax in Sprague-Dawley rat at 5 mg/kg, po; type: ADME, organism-based; details: in vivo
HL-60 [7] = assay: Synergistic antitumor activity against human HL-60 cells xenografted in BALB/c nude mouse assessed as tumor weight at 100 mg/kg, po qd for 16 days co-administered with doxorubicin (reference value: 27.9%); type: functional; details: HL-60, 384 h, time 16 day
[8] = AUC (0 to infinity) in Sprague-Dawley rat at 5 mg/kg, po; type: ADME, organism-based; set-up: time infinity, dose 5 mg/kg, route po; details: in vivo
HCT-116 [9] = assay: Antiproliferative activity against human HCT-116 cells assessed as inhibition of cell growth incubated for 48 hrs by MTT assay; type: functional, cell-based; details: HCT-116, 48 h
HCT-116 [10] = assay: Induction of apoptosis in human HCT-116 cells assessed as early apoptotic cells at 1 uM incubated for 24 hrs in presence of 100 nM doxorubicin by AnnexinV-FITC/PI staining based flow cytometry (reference value: 3.04%); type: functional
HCT-116 [11] = assay: Antiproliferative activity against human HCT-116 cells assessed as inhibition of cell growth incubated for 48 hrs in presence of 100 nM doxorubicin by MTT assay; type: functional, cell-based; details: HCT-116, 48 h
HCT-116 [12] = assay: Induction of apoptosis in human HCT-116 cells assessed as early apoptotic cells at 1 uM incubated for 24 hrs by AnnexinV-FITC/PI staining based flow cytometry (reference value: 3.04%); type: functional
HL-60 [13] = assay: Synergistic antitumor activity against human HL-60 cells xenografted in BALB/c nude mouse assessed as tumor volume at 100 mg/kg, po qd for 16 days co-administered with doxorubicin (reference value: 32.2%); type: functional; details: HL-60, 384 h, time 16 day
[14] = MRT (0 to infinity) in Sprague-Dawley rat at 5 mg/kg, po; type: ADME, organism-based; details: in vivo
HCT-116 [15] = assay: Induction of cell cycle arrest in human HCT-116 cells assessed as increase in accumulation of cells at G2/M phase at 1 uM incubated for 24 hrs in presence of 100 nM doxorubicin by PI staining based flow cytometry; type: functional
HCT-116 [16] = assay: Disruption of mitochondrial function in human HCT-116 cells assessed as decrease in mitochondrial membrane potential by measuring proportion of cells with red fluorescence at 1 uM incubated for 24 hrs by JC-1 staining based flow cytometry (reference value: 99.4%); type: functional; set-up: scale not given: the % may be the effect or the level left
[17] = Plasma protein binding in rat assessed as free fraction; type: ADME, cell-free
[18] = Plasma protein binding in human assessed as free fraction; type: ADME, cell-free
HCT-116 [19] = assay: Induction of apoptosis in human HCT-116 cells assessed as late apoptotic cells at 1 uM incubated for 24 hrs in presence of 100 nM doxorubicin by AnnexinV-FITC/PI staining based flow cytometry (reference value: 3.07%); type: functional
[20] = Cmax in Sprague-Dawley rat at 5 mg/kg, po; type: ADME, organism-based; set-up: dose 5 mg/kg, route po; details: in vivo
[21] = Lipophilicity, logP of the compound; type: physicochemical; details: octanol/water
HCT-116 [22] = assay: Synergistic antiproliferative activity against human HCT-116 cells assessed as combination index at 1 uM in presence of 100 nM doxorubicin by MTT assay; type: functional
HCT-116 [23] = assay: Induction of apoptosis in human HCT-116 cells assessed as viable cells at 1 uM incubated for 24 hrs in presence of 100 nM doxorubicin by AnnexinV-FITC/PI staining based flow cytometry (reference value: 93.9%); type: functional; details: read-out: Activity
HCT-116 [24] = assay: Induction of apoptosis in human HCT-116 cells assessed as necrotic cells at 1 uM incubated for 24 hrs by AnnexinV-FITC/PI staining based flow cytometry (reference value: 0.031%); type: functional
[25] = Kinetic solubility of the compound in phosphate-buffered solution at pH 7.4 incubated for 24 hrs by HPLC-MS/MS analysis; type: physicochemical; details: phosphate buffer, read-out: Kinetic_solubility
HCT-116 [26] = assay: Induction of apoptosis in human HCT-116 cells assessed as necrotic cells at 1 uM incubated for 24 hrs in presence of 100 nM doxorubicin by AnnexinV-FITC/PI staining based flow cytometry (reference value: 0.031%); type: functional
[27] = Toxicity in BALB/c nude mouse xenografted with human HL-60 cells assessed as effect on body weight at 100 mg/kg, po qd for 16 days; type: organism-based; details: in vivo, 384 h, time 16 day
[28] = Kinetic solubility of the compound in phosphate-buffered solution at pH 6.4 incubated for 24 hrs by HPLC-MS/MS analysis; type: physicochemical; details: phosphate buffer, read-out: Kinetic_solubility
HCT-116 [29] = assay: Disruption of mitochondrial function in human HCT-116 cells assessed as decrease in mitochondrial membrane potential by measuring proportion of cells with green fluorescence at 1 uM incubated for 24 hrs by JC-1 staining based flow cytometry (reference value: 0.566%); type: functional; set-up: scale not given: the % may be the effect or the level left

Structure (SMILES): Cc1cc2nccnc2cc1Nc1ncc2c(n1)N(C1CCOCC1)CC(=O)N2C
- pIC50 [1]: 8.49

Structure (SMILES): Cc1cc2ncccc2cc1Nc1ncc2c(n1)C1(CCOCC1)C(=O)N2C
- pIC50 [1]: 7.98

Structure (SMILES): Cc1cc2ncnn2cc1Nc1ncc2c(n1)n(C1CCOCC1)c(=O)n2C [AZD-7648]
- Activity (HCT-116 [2]): Active
- Activity [3]: Non-Toxic
- Activity (HCT-116 [4]): 4.53%
- viability at 1 µM (HCT-116 [5]): 92.7%
- Tmax [6]: 0.83 h
- inhibition in vivo at 100 mg/kg (HL-60 [7]): 55.3%
- AUC(0-inf) [8]: 5240 ng·h/mL
- pIC50 (HCT-116 [9]): 4.45
- Activity (HCT-116 [10]): 10.3%
- pIC50 (HCT-116 [11]): 4.71
- Activity (HCT-116 [12]): 2.76%
- inhibition in vivo at 100 mg/kg (HL-60 [13]): 68.1%
- MRT inf [14]: 2.51 h
- Activity (HCT-116 [15]): 64.46%
- Activity (HCT-116 [16]): 92.2%
- fraction unbound [17]: 0.653
- fraction unbound [18]: 0.834
- Activity (HCT-116 [19]): 7.33%
- Cmax [20]: 1500 ng/mL
- logP [21]: 1.2
- CI (HCT-116 [22]): 0.79
- viability at 1 µM (HCT-116 [23]): 82.3%
- Activity (HCT-116 [24]): 0.05%
- solubility kinetic at 24 h [25]: 120 µg/mL (≈ 316 µM)
- Activity (HCT-116 [26]): 0.102%
- Activity [27]: Non-Toxic
- solubility kinetic at 24 h [28]: 101 µg/mL (≈ 266 µM)
- Activity (HCT-116 [29]): 7.64%

Structure (SMILES): Cc1cc2ncnn2cc1Nc1ncc2c(n1)C1(CCOCC1)C(=O)N2C(C)C
- pIC50 [1]: 6.66

Structure (SMILES): [2H]C([2H])([2H])N1C(=O)C2(CCOCC2)c2nc(Nc3cn4ncnc4cc3C)ncc21
- pIC50 [1]: 6.90

Structure (SMILES): Cc1cc2ncnn2cc1Nc1ncc2c(n1)C1(CCC(OCC(F)F)CC1)C(=O)N2C (stereo unspecified)
- pIC50 [1]: 7.77

Structure (SMILES): Cc1cc2ncnn2cc1Nc1ncc2c(n1)N(C1CCOCC1)CC(=O)N2
- pIC50 [1]: 8.15

Next, values leading:

- pIC50 [1]: 7.59
Structure (SMILES): Cc1cc2ncnn2cc1Nc1ncc2c(n1)N(C1CCOCC1)CC(=O)N2C(C)C

- pIC50 [1]: 8.17
Structure (SMILES): Cc1cc2ncnn2cc1Nc1ncc2c(n1)N(C1CCOCC1)CC(=O)N2C1CC1

- pIC50 [1]: 7.67
Structure (SMILES): Cc1cc2ncnn2cc1Nc1ncc2c(n1)C1(CCC1)C(=O)N2C

- pIC50 [1]: 8.16
Structure (SMILES): Cc1cc2ncccc2cc1Nc1ncc2c(n1)N(C1CCOCC1)CC(=O)N2C

- pIC50 [1]: 6.87
Structure (SMILES): CCN1C(=O)C2(CCOCC2)c2nc(Nc3cn4ncnc4cc3C)ncc21

- pIC50 [1]: 7.32
Structure (SMILES): Cc1cc2ncnn2cc1Nc1ncc2c(n1)C(C)(C)C(=O)N2C

- pIC50 [1]: 8.47
Structure (SMILES): CCN1C(=O)CN(C2CCOCC2)c2nc(Nc3cn4ncnc4cc3C)ncc21
